Measurements reported in article PMC7876453, “Targeting Indoleamine 2,3-Dioxygenase in Cancer Models Using the Novel Small Molecule Inhibitor NTRC 3883-0” (Frontiers in Immunology, 2021).

What was measured:
A375 + IFNγ (hIDO1) = target: T1, A375 + IFNγ (hIDO1) (Homo sapiens, UniProt P14902); assay: cell-based assay, Trp-catabolizing activity in IFNγ-stimulated A375 cells; settings: IFNγ-stimulated A375 human melanoma cells
T1 construct: host or cells: A375 cells stimulated with IFNγ

human IDO1 = target: T2, human IDO1 (Homo sapiens, UniProt P14902); assay: human IDO1 biochemical assay (NFK GreenScreen)
T2 construct: Full-length recombinant human and mouse IDO1 were expressed in Escherichia coli with a hexahistidine tag at the N-terminus; hexahistidine (N); made in house; host or cells: Escherichia coli
T2 sequence (P14902 whole entry): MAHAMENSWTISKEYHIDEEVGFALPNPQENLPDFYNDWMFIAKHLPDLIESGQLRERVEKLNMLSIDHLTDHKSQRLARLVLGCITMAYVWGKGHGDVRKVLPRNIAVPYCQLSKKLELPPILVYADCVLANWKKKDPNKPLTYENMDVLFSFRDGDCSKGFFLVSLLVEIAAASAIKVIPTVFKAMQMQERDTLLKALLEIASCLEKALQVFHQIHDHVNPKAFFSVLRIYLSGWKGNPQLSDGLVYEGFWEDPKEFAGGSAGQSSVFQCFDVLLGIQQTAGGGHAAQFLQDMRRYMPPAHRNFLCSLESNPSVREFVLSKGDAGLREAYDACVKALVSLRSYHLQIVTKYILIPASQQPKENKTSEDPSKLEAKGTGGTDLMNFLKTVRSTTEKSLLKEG

IDO1 [1] = settings: cited from earlier work
TDO = settings: cited from earlier work
human TDO = target: T3, human TDO (Homo sapiens, UniProt P48775); assay: human TDO biochemical assay (NFK GreenScreen); settings: biochemical; highest tested concentration 31.6 µM
T3 construct: hexahistidine (C); made in house; host or cells: Escherichia coli
T3 sequence (P48775 whole entry): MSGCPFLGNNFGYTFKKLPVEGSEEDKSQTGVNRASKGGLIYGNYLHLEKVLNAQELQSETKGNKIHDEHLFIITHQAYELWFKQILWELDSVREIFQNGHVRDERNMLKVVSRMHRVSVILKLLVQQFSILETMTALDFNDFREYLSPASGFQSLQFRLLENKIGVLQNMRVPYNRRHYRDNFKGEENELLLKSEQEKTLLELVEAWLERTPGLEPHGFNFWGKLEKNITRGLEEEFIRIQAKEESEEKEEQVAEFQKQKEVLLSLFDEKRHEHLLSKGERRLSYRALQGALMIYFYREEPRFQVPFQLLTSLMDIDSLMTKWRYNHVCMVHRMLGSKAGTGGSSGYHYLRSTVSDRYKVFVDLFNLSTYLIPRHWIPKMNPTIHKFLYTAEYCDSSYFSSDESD
Experimental: Full-length recombinant human and mouse IDO1 were expressed in Escherichia coli with a hexahistidine tag at the N-terminus, and purified by affinity chromatography to > 95% purity, as described ([8]). Human and mouse TDO containing a C-terminal hexahistidine tag were analogously expressed and purified to > 95% purity ([8]). The inhibitory activity of compounds was determined with the NFK GreenScreen assay technology under the conditions as described ([8]), except for the reaction buffer for IDO1, which was replaced by 50 mM NaH2PO4, pH 7.0, supplemented with 0.01% Tween-20 and 1% glycerol. Inhibition of the CYP3A4 and CYP2D6 enzymes was determined with the P450-Glo™ Screening System with Luciferin-IPA (Promega, #V9920 and V9890). For determination of IC50 values, the effect of inhibitors was determined in 10-point duplicate dose-response curves. Graphs were fitted to a four-parameter logistics equation in XLfit (ID Business Solutions, Ltd., Guildford, UK) from which IC50 values were calculated.

IDO1 [2] = tested on: IDO1; parameters: method as in doi:10.1200/JCO.2019.37.7_suppl.358; settings: once-daily oral dosing; cited from earlier work

T1 sequence (P14902 whole entry): as the sequence (P14902 whole entry) above

Compound | IC50 (A375 + IFNγ (hIDO1)) | IC50 (human IDO1; human IDO1 biochemical assay) | also measured
O=C1CN(C(=O)c2ccccc2)C(c2cccc(Cl)c2)N1O (centres unmarked) [Compound 2b] | 5.22 µM | 2.38 µM | –
O=C1CN(C(=O)c2ccccc2)C(c2ccccc2Br)N1O (centres unmarked) [Compound 2c] | > 31.6 µM | > 31.6 µM | –
N[C@@H](Cc1c[nH]c2ccccc12)C(=O)O [Trp, L-tryptophan] | – | – | K M,Trp of IDO1 (IDO1 [1]): 6 µM; K M,Trp of TDO (TDO): 190 µM
O=C1CN(C(=O)c2ccccc2)C(c2cccc(Br)c2)N1O (centres unmarked) [Compound 1] | 4.52 µM | 1.22 µM | activity on human TDO (in words) (human TDO): inactive; IC50 (human IDO1; biochemical): 1.2 µM
O=C1CN(C(=O)c2ccccc2Br)C(c2cccc(Br)c2)N1O (centres unmarked) [Compound 3g] | 12.5 µM | 1.78 µM | –
O=C1CN(C(=O)c2c(F)cccc2F)[C@@H](c2cccc(Br)c2)N1O [Compound 3k] | 4.59 µM | 2.17 µM | –
Cc1ccccc1C(=O)N1CC(=O)N(O)C1c1cccc(Br)c1 (centres unmarked) [Compound 3d] | 21.7 µM | 4.02 µM | –
O=C1CN(C(=O)c2ccccc2)C(c2cccc(C(F)(F)F)c2)N1O (centres unmarked) [Compound 2g] | 5.29 µM | 2.46 µM | –
COc1ccccc1C(=O)N1CC(=O)N(O)C1c1cccc(Br)c1 (centres unmarked) [Compound 3e] | > 31.6 µM | > 31.6 µM | –
O=C1CN(C(=O)c2ccccc2F)C(c2cccc(Br)c2)N1O (centres unmarked) [Compound 3c] | 1.15 µM | 0.479 µM | –
C[C@@H](C(=O)Nc1ccc(Cl)cc1)[C@H]1CC[C@@H](c2ccnc3ccc(F)cc32)CC1 [Linrodostat, linrodostat] | – | – | safety and target coverage (IDO1 [2]): safety and good target coverage
